Test results published in patent US20170369878A1, “MICRORNA COMBINATIONS FOR ANTI-CANCER THERAPEUTICS” (Massachusetts Institute of Technology, priority 2015, published 2017).

Test system: OVCAR8 cells and OVCAR8-ADR cells
Assay: Docetaxel dose-response (MTT), resistant versus parental line
Assay type: cell-based, human
Details: docetaxel three days, FIG. 13
Experimental: OVCAR8 cells (triangles) and OVCAR8-ADR (squares) cells (docetaxel-resistant derivative of OVCAR8) cells were treated with docetaxel at indicated doses for three days and subjected to the MTT assay. Cell viabilities were compared to the respective no drug controls. The OVCAR8-ADR cell line has a ˜3-fold higher IC50 than the parental OVCAR8 cell line. Data represent the mean±SD (n=3).
For the MTT assay, 100 μl of MTT (3-(4,5-dimethylthiazol-2-yl)-2,5-diphenyltetrazolium bromide) solution (Sigma) was added to the cell cultures in 96-well plates and incubated at 37° C. with 5% CO2 for 2 hours. Viable cells convert the soluble MTT salt to insoluble blue formazan crystals. Formazan crystals formed were dissolved with 100 μl of solubilization buffer at 37° C. The absorbance of the solubilized formazan was measured at an optical density (OD) of 570 nm (along with the reference OD at 650 nm) using a Synergy H1 Microplate Reader (BioTek). For the trypan blue exclusion assay, cells were trypsinized and stained with 0.4% trypan blue dye solution (Sigma). Viable cells were counted in four different fields of a hemacytometer under microscopy.

SMILES: CC(=O)O[C@@]12CO[C@@H]1C[C@H](O)[C@@]1(C)C(=O)[C@H](O)C3=C(C)[C@@H](OC(=O)[C@H](O)[C@@H](NC(=O)OC(C)(C)C)c4ccccc4)C[C@@](O)([C@@H](OC(=O)c4ccccc4)[C@H]21)C3(C)C [docetaxel]
- IC50 of OVCAR8-ADR relative to parental OVCAR8: ~3 fold
